Measured values published in patent publication US20220062340A1, “IMMUNOTHERAPEUTIC METHODS AND COMPOSITIONS” (KING'S COLLEGE LONDON, priority 2018, published 2022).
Values joined by “and” are separate entries in the source; they are usually repeats but may differ in a detail not shown here. Equal values may be shown once.

Key:
[1] = biological target: T1, RARα (Homo sapiens, UniProt P10276); test: Selectivity profile against human RARs (RARα agonism); type: biochemical
T1 sequence (P10276 1-462): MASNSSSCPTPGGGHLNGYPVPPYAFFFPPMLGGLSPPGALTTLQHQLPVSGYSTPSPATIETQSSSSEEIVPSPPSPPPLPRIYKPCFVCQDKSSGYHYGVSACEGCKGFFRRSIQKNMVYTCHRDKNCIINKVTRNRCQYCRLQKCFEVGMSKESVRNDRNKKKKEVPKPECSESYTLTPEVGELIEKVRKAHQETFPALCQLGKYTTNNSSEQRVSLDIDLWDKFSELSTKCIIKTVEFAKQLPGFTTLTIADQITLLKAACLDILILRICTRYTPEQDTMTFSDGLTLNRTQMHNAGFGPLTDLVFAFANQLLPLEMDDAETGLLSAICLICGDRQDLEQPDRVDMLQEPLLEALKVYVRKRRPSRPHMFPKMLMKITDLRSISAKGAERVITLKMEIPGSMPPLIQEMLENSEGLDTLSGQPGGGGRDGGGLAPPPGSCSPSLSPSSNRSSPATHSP

[2] = system: integrin α4β7 on Tregs; test: α4β7 expression on ex vivo expanded CD45RA+ Tregs from CD patients (flow cytometry); type: cell-based, human; settings: CD4+CD25hiCD127loCD45RA+ Tregs cultured with rapamycin and high dose IL-2 plus the agonist; mean ± SD
Experimental: “Complete X-VIVO-15” (Lonza, Walkersville, MD) was used for ex vivo Treg expansion, Treg cytokine challenge experiments and Treg suppression assays. This was supplemented with 100 nM or 10 nM Rapamycin and all-trans retinoic acid (ATRA) 2 μM or 1 nM, or Rapamycin and RAR568 1 nM.
(§1) FACS-sorted Treg populations were plated at 1×10^6 or 0.5×10^6 in X-VIVO-15 medium and activated with anti-CD3/anti-CD28 coated beads (Dynabeads®, Invitrogen, Paisley, UK) at 1:1 bead: cell ratio. Rapamycin was added at day 0 of culture at a final concentration of 100 nM/L +/−ATRA 1 nM/L or RAR568 1 nM/L. Next, 1,000 IU/ml recombinant human IL-2 (rhlL-2) (Proleukin®, Novartis, Camberley, UK) was added at day 5 of culture. Cells were re-stimulated every 10-12 days and expanded for a total of 24-30 days. The phenotype and suppressive ability were assessed at the end of the culture period.
Flow cytometry panels have been designed to assess the subtypes of regulatory T cells in patients with CD as well as their expression of gut homing molecules. Gating was performed based on natural populations when assessing for CD4^+CD25^highCD127low populations, as well as for CD45RA^+ Treg populations. Additionally, to minimize bias in the assessment of expression of gut homing markers and transcription factors, a fluorochrome minus one (FMO) panel was added for each marker of interest in each experiment that was performed. […]

[3] = system: integrin β7 on Tregs; test: Dose response of integrin β7 induction on expanded Tregs; type: cell-based; settings: Homo sapiens; Tregs in in vitro culture, FIG. 2c; read-out: EC50 to induce the expression of integrin β7
Experimental: as §1
Flow cytometry panels have been designed to assess the subtypes of regulatory T cells in patients with CD as well as their expression of gut homing molecules. Gating was performed based on natural populations when assessing for CD4^+CD25^highCD127low populations, as well as for CD45RA^+ Treg populations. Additionally, to minimize bias in the assessment of expression of gut homing markers and transcription factors, a fluorochrome minus one (FMO) panel was added for each marker of interest in each experiment that was performed.

[4] = system: Effector T cells (Teff); test: Treg suppression assay (proliferation of CFSE-labelled Teff); type: cell-based, human; settings: lowest (8:1) Teff:Treg titration, FIG. 2e
Experimental: Effector T cells (Teff) were labelled with carboxyfluorescein succinimidyl ester (CFSE, Invitrogen) according to standard protocols. Cells were washed with phosphate buffered saline (PBS) to remove excess protein. Cells were then incubated with a 1 μM/L CFSE solution in the dark at room temperature for 4 minutes. The reaction was then quenched with 9 ml of complete medium.
Teff were activated with anti-CD3/anti-CD28 micro beads at a bead: Teff ratio of 0.02:1. 1×10^5 Teff were then cultured either alone or with Tregs in serial dilutions. The ratios of Teff: Treg were 1:1, 2:1, 4:1, and 8:1. This was done in X-VIVO-15 and proliferation rates were assessed by flow cytometry after 5 days of incubation.
Percentage suppression (S) of proliferation was calculated using the following formula:
Where c=percentage of proliferating precursors in the presence of Tregs and d=percentage of proliferating precursors in the absence of Tregs.

[5] = system: Ex vivo expanded Tregs; test: IL-17 and IFNγ production under pro-inflammatory cytokine challenge (ELISA); type: cell-based, human; settings: Tregs expanded ex vivo in the presence of the agonist, FIG. 2f
Experimental: Cytokine concentrations were measured using the Ready-SET-Go sandwich ELISA kits from eBioscience.
Ex vivo expanded Tregs were activated with CD3/CD28 beads at a 1:20 ratio and cultured at 10^6cells/m1 in X-VIVO for 5 days at 37° C./5% CO2, supplemented with the following cytokine cocktail: A) IL-2 (10 IU/mL, Proleukin); (B) IL-2, IL-1 (10 ng/mL), IL-6 (4 ng/mL) and transforming growth factor-β (TGF-β (5 ng/mL), IL-21 (25 ng/mL), IL-23 (25 ng/mL) (all R&D Systems). Supernatant IL-17 and interferon gamma (IFNγ) concentrations were measured by ELISA.

[6] = system: MAdCAM-1; test: In-vitro trafficking assay, MAdCAM-1 coated Ibidi flow chamber; type: cell-based, human; settings: agonist-treated Tregs from CD patients compared to cells expanded under standard conditions
Experimental: Ibidi (Martinsreid, Germany) μ-Slides VI″ were coated with recombinant human MAdCAM-1 (R&D Systems, Minneapolis, Minn.), at a concentration of 10μg/ml and incubated overnight. Cells from two CD patients that had previously undergone ex vivo expansion under two parallel conditions (Rapa and Rapa+RAR568) and had been frozen in liquid nitrogen were defrosted and rested overnight. Rested cells were then activated with rhCCL25 (R&D systems) and passed through the coated Ibidi flow chamber at a rate of 1 dyne/cm^2. The total number of cells, as well as those rolling, adherent and crawling was quantified from six randomly selected fields of view per treatment.
In order to assess the physiological relevance of the induction of α4β7 expression by RAR568, treated and untreated Tregs from CD patients were passed through a MAdCAM-1 coated flow chamber (FIG. 10). The total number of cells adherent to the chamber, as well as their stages of rolling, adhesion and crawling, were compared to cells that were expanded under standard conditions.

CCOc1c(Cl)cc(C(=O)Nc2ccc(C(=O)O)c(C)c2)cc1OC(C)C [RAR568]
EC50 [1]: 0.59 nM | α4β7 expression of expanded Tregs [2]: 95.9±1.93 and 95.89±1.93 | EC50 [3]: 0.01 nM | Suppressive ability of expanded Tregs [4]: highly suppressive even at the lowest (8:1) titration | IFNγ production following pro-inflammatory cytokine challenge [5]: did not produce | IL-17 production following pro-inflammatory cytokine challenge [5]: did not produce | total cells and cells rolling, adherent and crawling in MAdCAM-1 coated flow chamber [6]: significantly more total cells as well as cells at each condition of migration
